Article PMC11100219, “Dual-function antimicrobial-antibiofilm peptide hybrid to tackle biofilm-forming Staphylococcus epidermidis” (Annals of Clinical Microbiology and Antimicrobials, 2024)
≈ marks a conversion by molar mass, not a printed value. Residues, ends and D or L forms follow the SMILES beside them.

Assays:
[1] = test system: all gram-positive bacterial strains; assay: Mean MIC and therapeutic index, gram-positive strains; type: cell-based; details: four gram-positive strains
Description: (§1) The minimal inhibitory concentrations (MICs) of peptide derivatives versus planktonic bacteria were assessed using a modification of the broth microdilution assay previously described in the National Committee for Clinical Laboratory Standards (NCCLS). In brief, bacteria at mid-logarithmic growth were collected by centrifugation at 2,500 × g for 5 min. Subsequently, the pellet was resuspended and adjusted in Mueller-Hinton Broth (MHB; BD Bacto™, USA) to an OD620 of 0.05. Fifty µL of bacterial suspensions was transferred to 96-well microplates. Later, 50 µL of peptide derivatives at 0.98–250 µg/mL in 10 mM PBS, was added to wells and incubated for 24 h at 37°C with continuous shaking at 220 rpm. […] The experiments were done in three technical replicates and repeated independently.
(§2) The therapeutic index (TI) is widely used for evaluating a peptide’s efficacy and safety. It is the ratio between the minimum hemolytic concentration (MHC, the concentration causing 10% hemolysis) and the geometric mean (GM) value of the MIC [15]. […] While, both lysine-substituted peptides (BiF2_7K and BiF2_5K7K) had higher TIs against all tested biofilm-forming bacteria than did the two parent peptides, and the TI of BiF2_5K7K was higher than that of BiF2_7K.

[2] = test system: Salmonella Typhimurium ATCC 13311; assay: Broth microdilution MIC / MBC; type: cell-based; details: 24 h, 37°C; for MIC: broth microdilution, MHB, 0.98-250 µg/mL, visible inspection; for MBC: plating of non-turbid wells on TSA
Description: as §1
(§3) To determine minimal bactericidal concentrations (MBCs) of the peptides, 50 µL of supernatant from non-turbid wells was plated on TSA, and the number of colony-forming units (CFUs) was observed after 24 h of incubation at 37°C. MBC was defined as the minimum concentration of peptide at which no bacterial colony was observed on the plate.

[3] = test system: Escherichia coli ATCC 25922; assay: Broth microdilution MIC / MBC; type: cell-based; details: 24 h, 37°C; for MIC: broth microdilution, MHB, 0.98-250 µg/mL, visible inspection; for MBC: plating of non-turbid wells on TSA
Description: as §1, §3

[4] = test system: Staphylococcus epidermidis ATCC 35984; assay: Broth microdilution MIC / MBC; type: cell-based; details: 24 h, 37°C; for MIC: broth microdilution, MHB, 0.98-250 µg/mL, visible inspection; for MBC: plating of non-turbid wells on TSA
Description: as §1, §3

[5] = test system: Pseudomonas aeruginosa ATCC 27853; assay: Broth microdilution MIC / MBC; type: cell-based; details: 24 h, 37°C; for MIC: broth microdilution, MHB, 0.98-250 µg/mL, visible inspection; for MBC: plating of non-turbid wells on TSA
Description: as §1, §3

[6] = test system: Staphylococcus aureus ATCC 25923; assay: Broth microdilution MIC / MBC; type: cell-based; details: 24 h, 37°C; for MIC: broth microdilution, MHB, 0.98-250 µg/mL, visible inspection; for MBC: plating of non-turbid wells on TSA
Description: as §1, §3

[7] = test system: Acinetobacter baumanii MT strain; assay: Broth microdilution MIC / MBC; type: cell-based; details: 24 h, 37°C; for MIC: broth microdilution, MHB, 0.98-250 µg/mL, visible inspection; for MBC: plating of non-turbid wells on TSA
Description: as §1, §3

[8] = test system: Bacillus cereus ATCC 11778; assay: Broth microdilution MIC / MBC; type: cell-based; details: 24 h, 37°C; for MIC: broth microdilution, MHB, 0.98-250 µg/mL, visible inspection; for MBC: plating of non-turbid wells on TSA
Description: as §1, §3

[9] = test system: Listeria monocytogenes 10403s; assay: Broth microdilution MIC / MBC; type: cell-based; details: 24 h, 37°C; for MIC: broth microdilution, MHB, 0.98-250 µg/mL, visible inspection; for MBC: plating of non-turbid wells on TSA
Description: as §1, §3

[10] = test system: S. epidermidis (ATCC 35984) biofilm; assay: Biofilm-formation inhibitory activity, crystal violet staining; type: cell-based, Staphylococcus epidermidis; details: CV staining, TSB, 10^6 CFU/mL, 24 h, 37°C, 0.98-250 µg/mL; for MBIC50: minimum concentration inhibiting biofilm formation more than 50%; for MBIC90: minimum concentration inhibiting biofilm formation more than 90%
Description: The biofilm inhibitory activity of peptide derivatives was assessed by modified crystal violet (CV) staining. Briefly, the pellet of S. epidermidis (ATCC 35984) was collected through centrifugation of bacterial suspensions grown overnight at 2,500 × g for 5 min. Subsequently, the pellet was resuspended and diluted with TSB to a final concentration of 10^6 CFU/mL. Then, 50 µL of these diluted suspensions was transferred to 96-well microplates containing same volume of peptide derivatives in 10 mM phosphate buffer saline (PBS; Caisson Labs, USA), with concentrations ranging from 0.98 to 250 µg/mL. Vancomycin was used as positive control while TSB medium without bacteria was used as negative control. After 24 h of incubation and reaching static growth at 37°C, culture media as well as planktonic cells were removed, then the biofilm in each well was washed thrice with 0.85% NaCl. For CV staining, biofilms were fixed with 95% ethanol and stained with a 0.1% (v/v) CV solution for 15 min. After removal of excess dye, each well was washed thrice with 0.85% NaCl and resuspended in 95% ethanol to dissolve bound dye. Absorbance was determined at 570 nm using a Multiskan SkyHigh microplate reader (Thermo Scientific™, Singapore). All experiments were done in six technical replicates and repeated independently three times. Minimum biofilm inhibitory concentrations at 50% and 90% (MBIC50 and MBIC90) refers to concentrations of the peptide at which the inhibition of biofilm was at least 50% and 90%, respectively.

[11] = test system: human red blood cells (hRBCs); assay: Hemolysis activity (hemoglobin release); type: cell-based; details: 1 h, 37°C; for MHC, minimum hemolytic concentration: peptide concentration causing 10% hemolysis of hRBCs, 2% hRBCs in 10 mM PBS, OD405
Description: The effect of peptides on human red blood cells (hRBCs) was assessed by observing the release of hemoglobin upon treated with peptide. Briefly, the hRBCs were obtained from healthy volunteers and subsequently diluted in 10 mM PBS to a concentration of 2% hRBCs. An equal volume of 2% hRBCs and peptide at concentration of 0.98–250 µg/mL in 10 mM PBS mixtures were incubated for 1 h at 37°C. Following incubation, the suspension was centrifuged, then supernatants were collected and transferred to 96-well microplates for measurement of absorbance at OD of 405 nm (OD405). This study was performed in accordance with the Thammasat University Ethics Committee (COA No. 066/2562). Written informed consent was obtained from all volunteers.

[12] = test system: all gram-negative bacterial strains; assay: Mean MIC and therapeutic index, gram-negative strains; type: cell-based; details: four gram-negative strains
Description: as §1, §2

[13] = test system: human lung fibroblast MRC-5 cell lines (ATCC CCL-171); assay: MTT cytotoxicity assay; type: cell-based; details: MRC-5, 24 h
Description: The toxicity of peptide BiF2_5K7K against human lung fibroblast MRC-5 cell lines (ATCC CCL-171) was investigated by MTT colorimetric assay. Briefly, MRC-5 cells were cultured in Minimum Essential Medium [MEM; supplemented with 10% heat-inactivated FBS and 1% Penicillin-Streptomycin] in 5% CO2 at 37°C. Following an overnight incubation, MRC-5 cells were diluted to 10,000 cells/well and placed in 96-well microplates. Subsequently, they were exposed to BiF2_5K7K at 0.98 to 250 µg/mL. After incubation for 24 h, MTT solution (0.4 mg/mL) was added to each well and incubated for an additional 3 h under 5% CO2 at 37°C. The supernatant was then removed and 100 µL DMSO added, and absorbance was measured at 570 nm using a microplate reader.

SMILES | GM +, geometric mean of MIC values from all gram-positive bacterial strains [1] [µg/mL] | MIC [2] [µg/mL] | MBC [2] [µg/mL] | MIC [3] [µg/mL] | MBC [3] [µg/mL] | MIC [4] [µg/mL] | MBC [4] [µg/mL] | MIC [5] [µg/mL] | MBC [5] [µg/mL] | MIC [6] [µg/mL] | MBC [6] [µg/mL] | MIC [7] [µg/mL] | MBC [7] [µg/mL] | MIC [8] [µg/mL] | MBC [8] [µg/mL] | MIC [9] [µg/mL] | MBC [9] [µg/mL] | MBIC50 [10] [µg/mL] | MBIC90 [10] [µg/mL] | GM-, geometric mean of MIC values from all gram-negative bacterial strains [12] [µg/mL] | also measured
CC[C@H](C)[C@H](NC(=O)[C@H](CC(C)C)NC(=O)[C@H](CCCCN)NC(=O)[C@@H](NC(=O)[C@H](CC(C)C)NC(=O)[C@@H](N)Cc1ccccc1)C(C)C)C(=O)N[C@@H](CCCCN)C(=O)N[C@@H](CCCCN)C(=O)N[C@H](C(=O)N[C@@H](CC(C)C)C(=O)N[C@@H](CCCNC(=N)N)C(=O)N[C@@H](CCCNC(=N)N)C(N)=O)[C@@H](C)CC [BiF2_7K] (H-FLVKLIKKILRR-NH2; N-terminus assumed) | 9.77 | 7.81 (≈ 5.12 µM) | 15.63 (≈ 10.2 µM) | 31.2 (≈ 20.5 µM) | 31.2 (≈ 20.5 µM) | 7.81 (≈ 5.12 µM) | 7.81 (≈ 5.12 µM) | 15.6 (≈ 10.2 µM) | 15.6 (≈ 10.2 µM) | 15.6 (≈ 10.2 µM) | 15.6 (≈ 10.2 µM) | 7.81 (≈ 5.12 µM) | 7.81 (≈ 5.12 µM) | 7.81 (≈ 5.12 µM) | 7.81 (≈ 5.12 µM) | 7.81 (≈ 5.12 µM) | 7.81 (≈ 5.12 µM) | 3.91 | 7.81 | 15.63 | hemolytic activity ([11]; at 250 µg/mL (maximum concentration tested)): 60%; MHC, minimum hemolytic concentration [11]: 15.63 µg/mL
CN[C@H](CC(C)C)C(=O)N[C@H]1C(=O)N[C@@H](CC(N)=O)C(=O)N[C@H]2C(=O)N[C@H]3C(=O)N[C@H](C(=O)N[C@H](C(=O)O)c4cc(O)cc(O)c4-c4cc3ccc4O)[C@H](O)c3ccc(c(Cl)c3)Oc3cc2cc(c3O[C@@H]2O[C@H](CO)[C@@H](O)[C@H](O)[C@H]2O[C@H]2C[C@](C)(N)[C@H](O)[C@H](C)O2)Oc2ccc(cc2Cl)[C@H]1O [vancomycin, reference compound] |  |  |  |  |  |  |  |  |  |  |  |  |  |  |  |  |  | 3.91 | 3.91 |  | 
CC[C@H](C)[C@H](NC(=O)[C@H](CC(C)C)NC(=O)[C@H](CCCCN)NC(=O)[C@@H](NC(=O)[C@H](CC(C)C)NC(=O)[C@@H](N)Cc1ccccc1)C(C)C)C(=O)N[C@@H](CC(C)C)C(=O)N[C@@H](CCCCN)C(=O)N[C@H](C(=O)N[C@@H](CC(C)C)C(=O)N[C@@H](CCCNC(=N)N)C(=O)N[C@@H](CCCNC(=N)N)C(N)=O)[C@@H](C)CC [BiF2] (H-FLVKLILKILRR-NH2; N-terminus assumed) | 31.25 | 62.5 (≈ 41.4 µM) | 62.5 (≈ 41.4 µM) | 31.2 (≈ 20.7 µM) | 31.2 (≈ 20.7 µM) | 31.25 (≈ 20.7 µM) | 62.5 (≈ 41.4 µM) | 15.63 (≈ 10.3 µM) | 31.25 (≈ 20.7 µM) | 62.5 (≈ 41.4 µM) | 62.5 (≈ 41.4 µM) | 62.5 (≈ 41.4 µM) | 62.5 (≈ 41.4 µM) | 15.6 (≈ 10.3 µM) | 15.6 (≈ 10.3 µM) | 15.63 (≈ 10.3 µM) | 31.25 (≈ 20.7 µM) | 125 | 250 | 42.97 | MHC, minimum hemolytic concentration [11]: 1.95 µg/mL
CC[C@H](C)[C@H](NC(=O)CN)C(=O)NCC(=O)N[C@@H](C)C(=O)N[C@H](C(=O)N[C@@H](CC(C)C)C(=O)N[C@@H](CCCCN)C(=O)N[C@H](C(=O)N[C@@H](CC(C)C)C(=O)N[C@H](C(=O)N[C@H](C(=O)NCC(=O)N[C@@H](CC(C)C)C(=O)N1CCC[C@H]1C(=O)N[C@@H](C)C(=O)N[C@@H](CC(C)C)C(=O)N[C@H](C(=O)N[C@@H](CO)C(=O)N[C@@H](Cc1c[nH]c2ccccc12)C(=O)N[C@H](C(=O)N[C@@H](CCCCN)C(=O)N[C@@H](CCCNC(=N)N)C(=O)N[C@@H](CCCCN)C(=O)N[C@@H](CCCNC(=N)N)C(=O)N[C@@H](CCC(N)=O)C(=O)N[C@@H](CCC(N)=O)C(N)=O)[C@@H](C)CC)[C@@H](C)CC)[C@@H](C)O)[C@@H](C)O)C(C)C)C(C)C [Melittin, melittin, reference compound] | 6.84 | 3.91 (≈ 1.37 µM) | 3.91 (≈ 1.37 µM) |  | 31.2 (≈ 11 µM) | 15.6 (≈ 5.49 µM) | 15.6 (≈ 5.49 µM) | 15.6 (≈ 5.49 µM) | 15.6 (≈ 5.49 µM) |  |  | 7.81 (≈ 2.74 µM) | 7.81 (≈ 2.74 µM) | 3.91 (≈ 1.37 µM) | 3.91 (≈ 1.37 µM) | 3.91 (≈ 1.37 µM) | 3.91 (≈ 1.37 µM) |  |  | 14.65 | cytotoxic effect [13]: strong dose-dependent cytotoxic effect; lysis of hRBCs ([11]; at 3.91 µg/mL): completely lysed
